Measured values as given in US11478478B2, “2,3-disubstituted 1-acyl-4-amino-1,2,3,4-tetrahydroquinoline derivatives and their use as bromodomain inhibitors” (GLAXOSMITHKLINE INTELLECTUAL PROPERTY (NO.2) LIMITED, priority 2013, dated 2022).
Where a name gives a salt, the structure may show the parent alone.

Molecular target: T1, BRD4 BD2 (Homo sapiens, UniProt O60885, Y97A)
T1 construct: BRD4 (1-477) (Y97A) and (Y390A); made in house; host or cells: E. coli (pET15b vector)
Assay: TR-FRET binding assay, BRD4 BD2 (BD1-mutated protein)
Conditions: read-out: pIC50 in the BRD4 BD2 assay (converted)
Procedure: Time Resolved Fluorescence Resonance Energy Transfer (TR-FRET) Assay Binding was assessed using a time resolved fluorescent resonance energy transfer binding assay. This utilises a 6 His purification tag at the N-terminal of the proteins as an epitope for an anti-6 His antibody labeled with Europium chelate (PerkinElmer AD0111) allowing binding of the Europium to the proteins which acts as the donor fluorophore. A small molecule, high affinity binder of the bromodomains BRD2, BRD3, BRD4 and BRDT has been labeled with Alexa Fluor647 (Reference Compound X) and this acts as the acceptor in the FRET pair.
In the absence of a competing compound, excitation of the Europium causes the donor to emit at λ618 nm which excites the Alexa labelled bromodomain binding compound leading to an increased energy transfer that is measurable at λ647 nM. In the presence of a sufficient concentration of a compound that can bind these proteins, the interaction is disrupted leading to a quantifiable drop in fluorescent resonance energy transfer.
The binding of the compounds of formula (I) to Bromodomains BRD2, BRD3, BRD4 and BRDT was assessed using mutated proteins to detect differential binding to either Binding Domain 1 (BD1) or Binding Domain 2 (BD2) on the bromodomain. These single residue mutations in the acetyl lysine binding pocket greatly lower the affinity of the fluoroligand (Reference Compound X) for the mutated domain (>1000 fold selective for the non-mutated domain). Therefore in the final assay conditions, binding of the fluoroligand to the mutated domain cannot be detected and subsequently the assay is suitable to determine the binding of compounds to the single non-mutated bromodomain.
Recombinant Human Bromodomains [(BRD2 (1-473) (Y113A) and (Y386A), BRD3 (1-435) (Y73A) and (Y348A) BRD4 (1-477) (Y97A) and (Y390A) and BRDT (1-397) (Y66A) and (Y309A)] were expressed in E. coli cells (in pET15b vector for BRD2/3/4 and in pET28a vector for BRDT) with a 6-His tag at the N-terminal. The His-tagged Bromodomain pellet was resuspended in 50 mM HEPES (pH7.5), 300 mM NaCl, 10 mM imidazole & 1 μl/ml protease inhibitor cocktail and extracted from the E. coli cells using sonication and purified using a nickel sepharose high performance column, the proteins were washed and then eluted with a linear gradient of 0-500 mM imidazole with buffer 50 mM HEPES (pH7.5), 150 mM NaCl, 500 mM imidazole, over 20 column volumes. Final purification was completed by Superdex 200 prep grade size exclusion column. Purified protein was stored at −80° C. in 20 mM HEPES pH 7.5 and 100 mM NaCl. Protein identity was confirmed by peptide mass fingerprinting and predicted molecular weight confirmed by mass spectrometry.
All assay components were dissolved in buffer composition of 50 mM HEPES pH7.4, 50 mM NaCl, 5% Glycerol, 1 mM DTT and 1 mM CHAPS. The final concentration of bromodomain proteins were 10 nM and the Alexa Fluor647 ligand was at Kd. These components were premixed and 5 μl of this reaction mixture was added to all wells containing 50 nl of various concentrations of test compound or DMSO vehicle (0.5% DMSO final) in Greiner 384 well black low volume microtitre plates and incubated in dark for 30 minutes at rt. 5 μl of detection mixture containing 1.5 nM final concentration anti-6His Europium chelate was added to all wells and a further dark incubation of at least 30 minutes was performed. Plates were then read on the Envision platereader, (λex=317 nm, donor λem=615 nm; acceptor λem=665 nm; Dichroic LANCE dual). Time resolved fluorescent intensity measurements were made at both emission wavelengths and the ratio of acceptor/donor was calculated and used for data analysis. All data was normalized to the mean of 16 high (inhibitor control—Example 11 of WO 2011/054846A1) and 16 low (DMSO) control wells on each plate. A four parameter curve fit of the following form was then applied: y=a+((b−a)/(1+(10^/10^)^d) […]

SMILES | IC50
CC(=O)N1c2ccc(N3CCCC3C)cc2[C@H](Nc2ccccc2)[C@@H](C)[C@@H]1C (mixture of isomers) [Example 81, 1-((rac-2S,3R,4R)-2,3-dimethyl-6-(2-methylpyrrolidin-1-yl)-4-(phenylamino)-3,4-dihydroquinolin-1(2H)-yl)ethanone] | 100 nM
CC(=O)N1c2ccc(C3=CCOCC3)cc2[C@H](Nc2cccc(C)n2)[C@@H](C)[C@@H]1C1CC1 (racemic) [Example 85, rac-1-((2S,3R,4R)-2-cyclopropyl-6-(3,6-dihydro-2H-pyran-4-yl)-3-methyl-4-((6-methylpyridin-2-yl)amino)-3,4-dihydroquinolin-1(2H)-yl)ethanone, formic acid salt] | 100 nM
CC(=O)N1c2ccc(C3=CCNCC3)cc2[C@H](Nc2cccc(C)n2)[C@@H](C)[C@@H]1C1CC1 (racemic) [Example 87, rac-1-((2S,3R,4R)-2-cyclopropyl-3-methyl-4-((6-methylpyridin-2-yl)amino)-6-(1,2,3,6-tetrahydropyridin-4-yl)-3,4-dihydroquinolin-1(2H)-yl)ethanone] | 100 nM
CC(=O)N1c2ccc(C3=CCOCC3)cc2[C@@H](Nc2ccccn2)[C@H](C)[C@H]1C1CC1 (racemic) [Example 92, rac-1-((2S,3R,4R)-2-cyclopropyl-6-(3,6-dihydro-2H-pyran-4-yl)-3-methyl-4-(pyridin-2-ylamino)-3,4-dihydroquinolin-1(2H)-yl)ethanone] | 100 nM
CC(=O)N1c2ccc(N3CCNCC3)cc2[C@H](Nc2ccccc2)[C@@H](C)[C@@H]1C1CC1 (racemic) [Example 94, rac-1-((2S,3R,4R)-2-cyclopropyl-3-methyl-4-(phenylamino)-6-(piperazin-1-yl)-3,4-dihydroquinolin-1(2H)-yl)ethanone, hydrochloride] | 100 nM
CC(=O)N1c2ccc(N3CCNC(C)C3)nc2[C@H](Nc2ccccc2)[C@@H](C)[C@@H]1C1CC1 (mixture of isomers) [Example 107, 1-((rac-2S,3R,4R)-2-cyclopropyyl-3-methyl-6-(3-methylpiperazin-1-yl)-4-(phenylamino)-3,4-dihydro-1,5-naphthyridin-1(2H)-yl)ethanone] | 1000 to 100000 nM
CC(=O)N1c2ccc(N3CCNCC3)nc2[C@H](Nc2ccccc2)[C@@H](C)[C@@H]1C1CC1 (racemic) [Example 108, rac-1-((2S,3R,4R)-2-cyclopropyl-3-methyl-4-(phenylamino)-6-(piperazin-1-yl)-3,4-dihydro-1,5-naphthyridin-1(2H)-yl)ethanone] | 1000 to 100000 nM
CC(=O)N1c2ccc(N3CCC(N)CC3)nc2[C@H](Nc2ccccc2)[C@@H](C)[C@@H]1C1CC1 (racemic) [Example 109, rac-1-((2S,3R,4R)-6-(4-aminopiperidin-1-yl)-2-cyclopropyl-3-methyl-4-(phenylamino)-3,4-dihydro-1,5-naphthyridin-1(2H)-yl)ethanone] | 1000 to 100000 nM
CC(=O)N1c2ccc(N3CCOCC3)nc2[C@H](Nc2ccccc2)[C@@H](C)[C@@H]1C1CC1 (racemic) [Example 110, rac-1-((2S,3R,4R)-2-cyclopropyl-3-methyl-6-morpholino-4-(phenylamino)-3,4-dihydro-1,5-naphthyridin-1(2H)-yl)ethanone] | 1000 to 100000 nM
COc1ccc2c(n1)[C@H](Nc1cccc(C)n1)[C@@H](C)[C@H](C1CC1)N2C(C)=O (racemic) [Example 111, rac-1-((2S,3R,4R)-2-cyclopropyl-6-methoxy-3-methyl-4-((6-methylpyridin-2-yl)amino)-3,4-dihydro-1,5-naphthyridin-1(2H)-yl)ethanone] | 1000 to 100000 nM
CC(=O)N1c2ccc(O)nc2[C@H](Nc2cccc(C)n2)[C@@H](C)[C@@H]1C1CC1 (racemic) [Example 112, rac-1-((2S,3R,4R)-2-cyclopropyl-6-hydroxy-3-methyl-4-((6-methylpyridin-2-yl)amino)-3,4-dihydro-1,5-naphthyridin-1(2H)-yl)ethanone] | 1000 to 100000 nM
CC(=O)N1c2cccnc2[C@H](Nc2cccc(C)n2)[C@@H](C)[C@@H]1C1CC1 (racemic) [Example 113, rac-1-((2S,3R,4R)-2-cyclopropyl-3-methyl-4-((6-methylpyridin-2-yl)amino)-3,4-dihydro-1,5-naphthyridin-1(2H)-yl)ethanone] | 1000 to 100000 nM
CC(=O)N1c2cnccc2[C@H](Nc2ccccc2)[C@@H](C)[C@@H]1C (racemic) [Example 115, rac-1-((2S,3R,4R)-2,3-dimethyl-4-(phenylamino)-3,4-dihydro-1,7-naphthyridin-1(2H)-yl)ethanone formate] | 100 nM
CC(=O)N1c2ccccc2[C@H](Oc2ccccc2)[C@@H](C)[C@@H]1C1CC1 (racemic) [Example 119, rac-1-((2S,3S,4R)-2-cyclopropyl-3-methyl-4-phenoxy-3,4-dihydroquinolin-1(2H)-yl)ethanone] | 100 nM
CC(=O)N1c2ccccc2[C@H](Nc2cccc(CN)c2)[C@@H](C)[C@@H]1C1CC1 (racemic) [Example 124, rac-1-((2S,3R,4R)-4-((3-(aminomethyl)phenyl)amino)-2-cyclopropyl-3-methyl-3,4-dihydroquinolin-1(2H)-yl)ethanone, hydrochloride] | 100 nM
CC(=O)N1c2ccccc2[C@H](Nc2ccc(C(=O)O)cc2)[C@@H](C)[C@@H]1C1CC1 (racemic) [Example 127, rac-4-(((2S,3R,4R)-1-acetyl-2-cyclopropyl-3-methyl-1,2,3,4-tetrahydroquinolin-4-yl)amino)benzoic acid] | 1000 to 100000 nM
CNCCn1cc(-c2ccc3c(c2)[C@H](Nc2ccc(C#N)cc2)[C@@H](C)[C@H](C2CC2)N3C(C)=O)cn1 (racemic) [Example 134, rac-4-(((2S,3R,4R)-1-acetyl-2-cyclopropyl-3-methyl-6-(1-(2-(methylamino)ethyl)-1H-pyrazol-4-yl)-1,2,3,4-tetrahydroquinolin-4-yl)amino)benzonitrile] | 100 nM
CC(=O)N1c2ccc(F)cc2[C@H](Nc2ccc(C#N)cc2)[C@@H](C)[C@@H]1C (racemic) [Example 139, rac-4-(((2S,3R,4R)-1-acetyl-6-fluoro-2,3-dimethyl-1,2,3,4-tetrahydroquinolin-4-yl)amino)benzonitrile] | 100 nM
CC(=O)N1c2ccc(F)cc2[C@H](Nc2ccc(F)cn2)[C@@H](C)[C@@H]1C (racemic) [Example 141, rac-1-((2S,3R,4R)-6-fluoro-4-((5-fluoropyridin-2-yl)amino)-2,3-dimethyl-3,4-dihydroquinolin-1(2H)-yl)ethanone] | 100 nM
CC(=O)N1c2ccc(F)cc2[C@H](Nc2ccc(C#N)cn2)[C@@H](C)[C@@H]1C (racemic) [Example 143, rac-6-(((2S,3R,4R)-1-acetyl-6-fluoro-2,3-dimethyl-1,2,3,4-tetrahydroquinolin-4-yl)amino)nicotinonitrile] | 100 nM
CC(=O)N1c2ccc(F)cc2[C@H](Nc2ccc(C#N)cc2)[C@@H](C)[C@@H]1C1CC1 (racemic) [Example 161, rac-4-(((2S,3R,4R)-1-acetyl-2-cyclopropyl-6-fluoro-3-methyl-1,2,3,4-tetrahydroquinolin-4-yl)amino)benzonitrile] | 100 nM
CC(=O)N1c2ccc(C3=CCOCC3)cc2[C@H](Nc2ncccn2)[C@@H](C)[C@@H]1C1CC1 (racemic) [Example 177, rac-1-((2S,3R,4R)-2-cyclopropyl-6-(3,6-dihydro-2H-pyran-4-yl)-3-methyl-4-(pyrimidin-2-ylamino)-3,4-dihydroquinolin-1(2H)-yl)ethanone, formic acid salt] | 100 nM
